Tested on: tea tree (Camellia Sinesis)
Assay: Spring application (soil infusion, then leaf spray twice): tea shoot production and proportion of terminal facing leaves
Format: in vivo
Details: urea 200× dilution
From the text: The inventors defined a unit area of 30×30 cm^2 for harvesting tea shoot and measuring weights. The inventors further defined a percentage value of cease-growing bud weight relative to the total bud weight, as indication of the increased tea leaf production without advancing the bud-aging side-effect.
One of the experiments involves first soil infusion application one week after initial harvesting, then leaf-spraying of KHP-1 500× solution twice, first time at the one-bud-with-one-leaf stage and second time at one-bud-with-two-leaf stage. In addition to a CK group, another urea application group of 200× dilution (200 kg of water to 1 kg of urea) is also tabulated. The result is shown in FIG. 1A where the tea shoot's production for the KHP-1 500× group is 32.54 g in a 900 cm^2 harvest area, higher than that of the CK group (20.86 g) and urea group (28.69 g).
This is reflected in FIG. 1B.

NC(N)=O [urea]
tea shoot's production (900 cm^2 harvest area, FIG. 1A): 28.69 g | proportion of terminal facing leaves (FIG. 1B): 47.4%

— patent publication US20250212892A1, “USE OF THERMALLY HYDROLYZED KERATIN PEPTIDE SOLUTION IN ENHANCING THE YIELD AND QUALITY OF TEA LEAVES” (CH Biotech R&D Co., Ltd., priority 2023, published 2025)
